Patent publication US8258114B2, “Modulation of glucose-6-phosphatase translocase expression” (Isis Pharmaceuticals, Inc., priority 2004, dated 2012)
Where two headings read alike, the source gives them in different places.

Assays:
[1] = test system: rat glucose-6-phosphatase translocase mRNA; assay: Reduction of glucose-6-phosphatase translocase mRNA in liver or kidney of ZDF rats (Table 15); format: in vivo; conditions: Rattus norvegicus, rosiglitazone alone 3 mg/kg daily in food
Method: Saline-injected animals served as a control treatment group. At the end of the treatment period, animals were sacrificed and target reduction in liver and kidney were measured by real-time PCR as described in other examples herein. […] For example, the following primer-probe set was designed to hybridize to rat glucose-6-phosphatase translocase sequences cited in Table 1: Forward primer: [NT] (incorporated herein as SEQ ID NO: 339) Reverse primer: [NT] (incorporated herein as SEQ ID NO: 340) PCR probe: […] (incorporated herein as SEQ ID NO: 341), where FAM is the fluorescent dye and TAMRA is the quencher dye.

[2] = test system: catalytic subunit of glucose-6-phosphatase (G6PC) mRNA; assay: Reduction of catalytic subunit of glucose-6-phosphatase (G6PC) mRNA in liver or kidney of ZDF rats (Table 15); format: in vivo, rat; conditions: Rattus norvegicus, rosiglitazone alone 3 mg/kg daily in food
Method: (§1) Saline-injected animals served as a control treatment group.
At the end of the treatment period, animals were sacrificed and target reduction in liver and kidney were measured by real-time PCR as described in other examples herein. Also measured were reductions in the catalytic subunit of glucose-6-phosphatase (G6PC) using a primer-probe set designed to hybridize to that mRNA. For example, the following primer-probe set was designed to hybridize to rat glucose-6-phosphatase translocase sequences cited in Table 1:
Results for each treatment group are shown in Table 15 as the average percent reduction in glucose-6-phosphatase translocase levels or in G6PC as compared to saline treated control.

[3] = Plasma glucose levels of ZDF rats, alone or in combination with rosiglitazone (Table 16); format: in vivo, rat; conditions: rosiglitazone alone 3 mg/kg daily
Method: as §1
Plasma glucose levels were evaluated at the beginning of the study (Wk 0), during the first week of treatment (Wk 1), during the third week of treatment (Wk 3), and during the fifth week of treatment (Wk 5).

aged Zucker fa/fa rats = assay: Oral glucose tolerance test in ZDF rats (Table 17); format: in vivo, rat; conditions: week 3, rosiglitazone alone 3 mg/kg daily
Method: as §1
To further evaluate the effects of ISIS 366228 alone or in combination with rosiglitazone, oral glucose tolerance tests were performed during the third week of treatment. To provide a baseline glucose level, fasted blood glucose levels were measured before the challenge. Glucose was administered by oral gavage via an 18 gauge gavage needle at a dose of 1 g/kg. Plasma glucose levels were measured for 15, 30, 60, 90, and 120 minutes post-challenge, using a glucose analyzer (for example, an Ascencia Glucometer Elite XL, Bayer, Tarrytown, N.Y.).

[4] = Plasma lipids (cholesterol, triglycerides, free fatty acids) in ZDF rats (Table 21); format: in vivo, rat
Method: as §1
To further assess the physiological effects resulting from inhibition of target mRNA with antisense oligonucleotide alone or in combination with rosiglitazone, the rats were evaluated throughout the treatment period for plasma free fatty acids, plasma cholesterol, and plasma triglyceride levels. Free fatty acids, triglycerides and cholesterol were measured by routine clinical analyzer instruments (e.g. Olympus Clinical Analyzer, Melville, N.Y.). Glucose levels were measured using a glucose analyzer, for example a YSI glucose analyzer (YSI Scientific, Yellow Springs, Ohio).

[5] = Body weights of ZDF rats (Table 18); conditions: for Body weight: rosiglitazone alone 3 mg/kg daily
[6] = Liver transaminases ALT and AST in ZDF rats; conditions: week 5
Method: (§2) Male Zucker fa/fa rats, about 17 to 18 weeks of age, purchased from Charles River Laboratories (Wilmington, Mass.), are maintained on a normal rodent diet. Animals are placed into treatment groups of 8 animals each. […] Another treatment group received the food-administered daily doses of 3 mg/kg of rosiglitazone alone. Saline-injected animals served as a control treatment group.
The liver transaminases, ALT and AST, were measured throughout the study.

[7] = Body fat percentage by MRI in Zucker rats (Table 19); conditions: for % Fat: MRI, rosiglitazone alone 3 mg/kg daily
Method: as §2
Also monitored throughout the study was body composition. Baseline body composition was measured by MRI prior to the start of treatment (BL). Body composition was also measured during week 3 (Wk 3) and during week 5 (Wk 5) of treatment.

[8] = Tissue weights (kidney, spleen, liver, fat pad) of ZDF rats (Table 20); conditions: end of study, rosiglitazone alone
Method: Male Zucker fa/fa rats, about 17 to 18 weeks of age, purchased from Charles River Laboratories (Wilmington, Mass.), are maintained on a normal rodent diet. Animals are placed into treatment groups of 8 animals each. One treatment group was dosed subcutaneously twice weekly with 12.5 mg/kg of ISIS 366228 (SEQ ID NO: 203). Another treatment group was dosed twice weekly with 25 mg/kg of ISIS 366228. Other treatment groups were dosed with 12.5 mg/kg or 25 mg/kg ISIS 366228 twice weekly in combination with daily 3 mg/kg doses of rosiglitazone (Rosi) administered in powdered food. Another treatment group received the food-administered daily doses of 3 mg/kg of rosiglitazone alone. Saline-injected animals served as a control treatment group.
Tissue weights were also determined at the end of the study.

Structure (SMILES): CN(CCOc1ccc(CC2SC(=O)NC2=O)cc1)c1ccccn1 (stereo not shown) [Rosiglitazone, rosiglitazone, reference compound]
- inhibition at 3 mg/kg ([1]; read-out: % Inhibition of glucose-6-phosphatase translocase, Kidney): 0%
- inhibition at 3 mg/kg ([1]; read-out: % Inhibition of glucose-6-phosphatase translocase, Liver): 46%
- inhibition at 3 mg/kg ([2]; read-out: % Inhibition of G6PC, Kidney): 5%
- inhibition at 3 mg/kg ([2]; read-out: % Inhibition of G6PC, Liver): 63%
- Plasma glucose ([3]; Wk 0): 570 mg/dL
- Plasma glucose ([3]; Wk 1): 462 mg/dL
- Plasma glucose ([3]; Wk 3): 487 mg/dL
- Plasma glucose ([3]; Wk 5): 498 mg/dL
- plasma glucose, OGTT (aged Zucker fa/fa rats; 0 min (fasted)): 251 mg/dL
- plasma glucose, OGTT (aged Zucker fa/fa rats; 15 min): 429 mg/dL
- plasma glucose, OGTT (aged Zucker fa/fa rats; 30 min): 490 mg/dL
- plasma glucose, OGTT (aged Zucker fa/fa rats; 60 min): 417 mg/dL
- plasma glucose, OGTT (aged Zucker fa/fa rats; 90 min): 409 mg/dL
- plasma glucose, OGTT (aged Zucker fa/fa rats; 120 min): 384 mg/dL
- plasma cholesterol (CHOL) ([4]; Wk 0, rosiglitazone alone): 202 mg/dL
- plasma triglycerides (TRIG) ([4]; Wk 0, rosiglitazone alone): 478 mg/dL
- plasma cholesterol (CHOL) ([4]; Wk 1, rosiglitazone alone): 217 mg/dL
- plasma triglycerides (TRIG) ([4]; Wk 1, rosiglitazone alone): 300 mg/dL
- plasma cholesterol (CHOL) ([4]; Wk 3, rosiglitazone alone): 220 mg/dL
- plasma triglycerides (TRIG) ([4]; Wk 3, rosiglitazone alone): 327 mg/dL
- plasma cholesterol (CHOL) ([4]; Wk 5, rosiglitazone alone): 234 mg/dL
- plasma triglycerides (TRIG) ([4]; Wk 5, rosiglitazone alone): 384 mg/dL
- body weight (in words) [5]: associated with increased body weight
- Body weight ([5]; Wk 0): 404 g
- Body weight ([5]; Wk 1): 422 g
- Body weight ([5]; Wk 2): 444 g
- Body weight ([5]; Wk 3): 453 g
- Body weight ([5]; Wk 4): 465 g
- liver transaminases ALT and AST (in words) [6]: reductions in levels of these indicators of liver function
- body fat percentage (in words) [7]: resulted in increased body fat
- % Fat ([7]; BL (baseline)): 24%
- % Fat ([7]; Wk 3): 32%
- % Fat ([7]; Wk 5): 36%
- Fat pad weight [8]: 9 grams
- Kidney weight [8]: 4 grams
- Liver weight [8]: 21 grams
- Spleen weight [8]: 0.6 grams
